Measurements as given in US4423218A, “Antibiotic neplanocin A” (Toyo Jozo Kabushiki Kaisha, priority 1978, dated 1983).

Experiments:
[1] = system: Helminthosporium oryzae M 0306; test: Growth inhibitory activity on plant pathogenic fungi (agar plate); assay type: cell-based; conditions: Bipolaris oryzae, M0306; 100 γ/ml solution, agar plate of Helminthosporium oryzae M 0306; read-out: inhibitory zone diameter
From the text: (1) Growth inhibitory activity on plant pathogenic fungi: […]

in vivo = conditions: mouse, ip, mice
[2] = Repeated intraperitoneal administration for 14 days, mortality; assay type: in vivo; conditions: intraperitoneally for 14 days, 5 mg/kg/day
Solubility = assay type: physicochemical
Nature (basicity) = assay type: physicochemical

Question: For `Nc1ncnc2c1ncn2C1C=C(CO)C(O)C1O` (single isomer, unassigned) [neplanocin A], which zone of inhibition at 100 µg/mL [1] is on record?
Answer: 18.9 mm

Question: What about the LD50 (in vivo) of the same compound?
Answer: 13.7 mg/kg

Question: What about the mortalities [2] of the same compound?
Answer: No mortalities were observed

Question: And the Solubility (Solubility; acetic acid)?
Answer: Soluble

Question: And the Solubility (Solubility; aqueous acetone)?
Answer: Soluble

Question: What about the Solubility (Solubility; benzene) of the same compound?
Answer: Insoluble

Question: What about the Solubility (Solubility; chloroform) of the same compound?
Answer: Insoluble

Question: And the Solubility (Solubility; dimethylformamide)?
Answer: Soluble

Question: And the Solubility (Solubility; dimethylsulfoxide)?
Answer: Soluble

Question: What about the Solubility (Solubility; ethyl acetate) of the same compound?
Answer: Insoluble

Question: What about the Solubility (Solubility; hexane) of the same compound?
Answer: Insoluble

Question: What about the Solubility (Solubility; water) of the same compound?
Answer: Soluble

Question: And the Nature (Nature (basicity))?
Answer: weakly basic
